Source: PubChem BioAssay (NCI)
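48-hour exposure; five concentrations; linearly interpolated endpoints. Abbreviation: GI50, concentration required for 50% inhibition of growth. TGI denotes the concentration required for complete inhibition of growth.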

Legend:
Assay in all cases: NCI anticancer screen, dose series, 48 h
MDA-MB-435 = system: MDA-MB-435
HT29 colon = system: HT29 colon
SN12C renal = system: SN12C renal
HS 578T breast = system: HS 578T breast
HOP-62 NSCLC = system: HOP-62 NSCLC
786-0 renal = system: 786-0 renal
HCC-2998 colon = system: HCC-2998 colon
CAKI-1 renal = system: CAKI-1 renal
A549 NSCLC = system: A549 NSCLC
MDA-MB-231 breast = system: MDA-MB-231 breast
A498 renal = system: A498 renal
SK-MEL-2 melanoma = system: SK-MEL-2 melanoma
OVCAR-8 ovarian = system: OVCAR-8 ovarian
LOX IMVI melanoma = system: LOX IMVI melanoma
BT-549 breast = system: BT-549 breast
OVCAR-5 ovarian = system: OVCAR-5 ovarian
SK-MEL-28 melanoma = system: SK-MEL-28 melanoma
NCI-H460 lung = system: NCI-H460 lung
SF-295 CNS = system: SF-295 CNS
UACC-257 melanoma = system: UACC-257 melanoma
CCRF-CEM leukemia = system: CCRF-CEM leukemia
PC-3 prostate = system: PC-3 prostate
K-562 leukemia = system: K-562 leukemia
SK-OV-3 ovarian = system: SK-OV-3 ovarian
OVCAR-3 ovarian = system: OVCAR-3 ovarian
UACC-62 melanoma = system: UACC-62 melanoma
SNB-75 CNS = system: SNB-75 CNS
KM12 colon = system: KM12 colon
HL-60(TB) leukemia = system: HL-60(TB) leukemia
NCI/ADR-RES ovarian = system: NCI/ADR-RES ovarian
ACHN renal = system: ACHN renal
RPMI-8226 leukemia = system: RPMI-8226 leukemia
OVCAR-4 ovarian = system: OVCAR-4 ovarian
NCI-H226 lung = system: NCI-H226 lung
HCT-15 colon = system: HCT-15 colon
DU-145 prostate = system: DU-145 prostate
SK-MEL-5 melanoma = system: SK-MEL-5 melanoma
U251 CNS = system: U251 CNS
UO-31 renal = system: UO-31 renal
IGROV1 ovarian = system: IGROV1 ovarian
M14 melanoma = system: M14 melanoma
SR leukemia = system: SR leukemia
SF-539 CNS = system: SF-539 CNS
SF-268 CNS = system: SF-268 CNS
NCI-H522 lung = system: NCI-H522 lung
MOLT-4 leukemia = system: MOLT-4 leukemia
COLO 205 colon = system: COLO 205 colon
MCF7 breast = system: MCF7 breast
RXF 393 renal = system: RXF 393 renal
HCT-116 colon = system: HCT-116 colon
SNB-19 CNS = system: SNB-19 CNS
SW-620 colon = system: SW-620 colon

`Brc1ccc(SCN(CSc2ccc(Br)cc2)Cc2ccccc2)cc1` gave a GI50 (MDA-MB-435) of 3.1 µM, a TGI (MDA-MB-435) of 12.2 µM and a GI50 (HT29 colon) of 5.05 µM. For the same molecule, the TGI (HT29 colon) was 18 µM, the GI50 (SN12C renal) was 1.38 µM and the TGI (SN12C renal) was 14.2 µM. For the same molecule, the GI50 (HS 578T breast) was 2.98 µM, the TGI (HS 578T breast) was greater than 100 µM and the GI50 (HOP-62 NSCLC) was 3.2 µM. It also gave a TGI (HOP-62 NSCLC) of 14.2 µM, a GI50 (786-0 renal) of 4.3 µM and a TGI (786-0 renal) of 15.5 µM. The GI50 (HCC-2998 colon) was 11.5 µM, the TGI (HCC-2998 colon) was 25.5 µM and the GI50 (CAKI-1 renal) was 3.47 µM. The TGI (CAKI-1 renal) was 12.5 µM, the GI50 (A549 NSCLC) was 2.41 µM and the TGI (A549 NSCLC) was 11 µM. For the same molecule, the GI50 (MDA-MB-231 breast) was 1.69 µM, the TGI (MDA-MB-231 breast) was 4.3 µM and the GI50 (A498 renal) was 1.51 µM. For the same molecule, the TGI (A498 renal) was 3.47 µM, the GI50 (SK-MEL-2 melanoma) was 6.06 µM and the TGI (SK-MEL-2 melanoma) was 19.9 µM. It also gave a GI50 (OVCAR-8 ovarian) of 3.71 µM, a TGI (OVCAR-8 ovarian) of 17.9 µM and a GI50 (LOX IMVI melanoma) of 1.61 µM. The TGI (LOX IMVI melanoma) was 3.19 µM, the GI50 (BT-549 breast) was 1.75 µM and the TGI (BT-549 breast) was 3.9 µM. It also gave a GI50 (OVCAR-5 ovarian) of 2.89 µM, a TGI (OVCAR-5 ovarian) of 11.4 µM and a GI50 (SK-MEL-28 melanoma) of 5.12 µM. The TGI (SK-MEL-28 melanoma) was 23.4 µM, the GI50 (NCI-H460 lung) was 2.78 µM and the TGI (NCI-H460 lung) was 12 µM. The GI50 (SF-295 CNS) was 1.28 µM, the TGI (SF-295 CNS) was 3.49 µM and the GI50 (UACC-257 melanoma) was 4.05 µM. The TGI (UACC-257 melanoma) was 17.5 µM, the GI50 (CCRF-CEM leukemia) was 2.1 µM and the TGI (CCRF-CEM leukemia) was 7.4 µM. It also gave a GI50 (PC-3 prostate) of 2.34 µM, a TGI (PC-3 prostate) of 10.3 µM and a GI50 (K-562 leukemia) of 5.44 µM. It also gave a TGI (K-562 leukemia) of 60.6 µM, a GI50 (SK-OV-3 ovarian) of 7.12 µM and a TGI (SK-OV-3 ovarian) of 51 µM. For the same molecule, the GI50 (OVCAR-3 ovarian) was 3.54 µM, the TGI (OVCAR-3 ovarian) was 11.4 µM and the GI50 (UACC-62 melanoma) was 3.01 µM. It also gave a TGI (UACC-62 melanoma) of 9.34 µM, a GI50 (SNB-75 CNS) of 2.28 µM and a TGI (SNB-75 CNS) of 10.9 µM. For the same molecule, the GI50 (KM12 colon) was 2.67 µM, the TGI (KM12 colon) was 10.9 µM and the GI50 (HL-60(TB) leukemia) was 2.35 µM. It also gave a TGI (HL-60(TB) leukemia) of 5.36 µM, a GI50 (NCI/ADR-RES ovarian) of 4 µM and a TGI (NCI/ADR-RES ovarian) of 95.8 µM. It also gave a GI50 (ACHN renal) of 4.49 µM, a TGI (ACHN renal) of 19 µM and a GI50 (RPMI-8226 leukemia) of 3.31 µM. For the same molecule, the TGI (RPMI-8226 leukemia) was 10.5 µM, the GI50 (OVCAR-4 ovarian) was 10.4 µM and the TGI (OVCAR-4 ovarian) was 87.8 µM. The GI50 (NCI-H226 lung) was 1.93 µM, the TGI (NCI-H226 lung) was 4.39 µM and the GI50 (HCT-15 colon) was 3.56 µM. For the same molecule, the TGI (HCT-15 colon) was 18.8 µM, the GI50 (DU-145 prostate) was 6.12 µM and the TGI (DU-145 prostate) was 21 µM. The GI50 (SK-MEL-5 melanoma) was 1.77 µM, the TGI (SK-MEL-5 melanoma) was 3.46 µM and the GI50 (U251 CNS) was 2.02 µM. For the same molecule, the TGI (U251 CNS) was 6.82 µM, the GI50 (UO-31 renal) was 1.93 µM and the TGI (UO-31 renal) was 8.64 µM. It also gave a GI50 (IGROV1 ovarian) of 2.64 µM, a TGI (IGROV1 ovarian) of 7.25 µM and a GI50 (M14 melanoma) of 3.79 µM. It also gave a TGI (M14 melanoma) of 14.2 µM, a GI50 (SR leukemia) of 2.77 µM and a TGI (SR leukemia) of 7.77 µM. It also gave a GI50 (SF-539 CNS) of 1.92 µM, a TGI (SF-539 CNS) of 3.88 µM and a GI50 (SF-268 CNS) of 2.31 µM. For the same molecule, the TGI (SF-268 CNS) was 12.6 µM, the GI50 (NCI-H522 lung) was 2.43 µM and the TGI (NCI-H522 lung) was 5.62 µM. It also gave a GI50 (MOLT-4 leukemia) of 2.37 µM, a TGI (MOLT-4 leukemia) of 6.82 µM and a GI50 (COLO 205 colon) of 3.85 µM. The TGI (COLO 205 colon) was 13.7 µM, the GI50 (MCF7 breast) was 3.06 µM and the TGI (MCF7 breast) was 13.3 µM. For the same molecule, the GI50 (RXF 393 renal) was 5.54 µM, the TGI (RXF 393 renal) was 20.4 µM and the GI50 (HCT-116 colon) was 3.66 µM. It also gave a TGI (HCT-116 colon) of 14.4 µM, a GI50 (SNB-19 CNS) of 2.69 µM and a TGI (SNB-19 CNS) of 23.5 µM. For the same molecule, the GI50 (SW-620 colon) was 3.58 µM and the TGI (SW-620 colon) was 15.1 µM.
